Measured values from patent publication US10851108B2, “Substituted bicyclic heterocyclic compounds” (BRISTOL-MYERS SQUIBB COMPANY, priority 2016, dated 2020).

What was measured:
hROMK (human Kir1.1) = hROMK (human Kir1.1) (Homo sapiens (Human), UniProt P48048); assay: Thallium Flux Assay; type: cell-based; details: CHO T-Rex hROMK stable cell line, 10-point concentration response; read-out: hROMK Th+ Flux IC50
Summary of the method: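 CHO T-Rex cells, doxycycline-induced (0.5 μg/ml) one day before, FluxOR dye-loaded; compounds 30 min, then Tl+ stimulus (final 3 mM Tl2SO4, 0.15 mM K2SO4) with ouabain in chloride-free buffer. Fluorescence 488/525 nm for 90 s; IC50 from 10-point curve; DMSO 0.5 or 1%.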

hERG = hERG (Homo sapiens (Human), UniProt Q12809); assay: hERG Manual Patch Clamp Assay; type: cell-based; details: for inhibition at 1 µM: pH 7.4, 1 μM, read-out: hERG EP IC50 (% Inhibition at 1 μM)
Method: hERG Manual Patch Clamp Assay
hERG electrophysiology assay: The experimental compounds were assessed for hERG activity on HEK 293 cells stably expressing hERG channels using patch clamp technique. Coverslips plated with hERG expressing cells were placed in the experimental chamber and were perfused with a solution composed of (in mM): 140 NaCl, 4 KCl, 1.8 CaCl2, 1 MgCl2, 10 Glucose, 10 HEPES (pH 7.4, NaOH) at room temperature. Borosilicate patch pipettes had tip resistances of 2-4 Mohms when filled with an internal solution containing: 130 KCl, 1 MgCl2, 1 CaCl2, 10 EGTA, 10 HEPES, 5 ATP-K2 (pH 7.2, KOH). The cells were clamped at −80 mV in whole cell configuration using an Axopatch 200B (Axon instruments, Union City, Calif.) patch clamp amplifier controlled by pClamp (Axon instruments) software. Upon formation of a gigaseal, the following voltage protocol was repeatedly (0.05 Hz) applied to record tail currents: depolarization step from −80 mV to +20 mV for 2 seconds followed by a hyperpolarization step to −65 mV (3 seconds) to elicit tail currents. Compounds were applied after stabilization of tail current. First, tail currents were recorded in presence of extracellular solution alone (control) and subsequently, in extracellular solution containing increasing compound concentrations. Each compound concentration was applied for 2-5 minutes. The percentage inhibition at each concentration was calculated as reduction in peak tail current with respect to the peak tail current recorded in the presence of control solution. Data analysis was performed in a custom made template. The percent inhibitions at different concentrations were plotted to obtain a concentration response curve, which was subsequently fitted with a four parameter equation to calculate hERG IC50 value.
A lower hERG % Inhibition value indicates less inhibition of the hERG current

[1] = human, HEK 293 cells stably expressing hERG channels

Chain of hROMK (human Kir1.1) (P48048 whole entry): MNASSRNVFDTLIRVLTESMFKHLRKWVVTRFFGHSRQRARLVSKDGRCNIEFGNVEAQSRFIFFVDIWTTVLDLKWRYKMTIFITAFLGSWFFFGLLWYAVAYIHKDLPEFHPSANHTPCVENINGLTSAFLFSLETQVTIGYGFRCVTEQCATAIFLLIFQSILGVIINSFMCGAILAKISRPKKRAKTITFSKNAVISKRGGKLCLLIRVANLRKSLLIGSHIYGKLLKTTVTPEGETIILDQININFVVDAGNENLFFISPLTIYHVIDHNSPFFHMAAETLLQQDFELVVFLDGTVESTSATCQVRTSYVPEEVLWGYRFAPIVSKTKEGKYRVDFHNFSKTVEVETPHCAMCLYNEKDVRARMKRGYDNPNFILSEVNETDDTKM
Chain of hERG (Q12809 whole entry): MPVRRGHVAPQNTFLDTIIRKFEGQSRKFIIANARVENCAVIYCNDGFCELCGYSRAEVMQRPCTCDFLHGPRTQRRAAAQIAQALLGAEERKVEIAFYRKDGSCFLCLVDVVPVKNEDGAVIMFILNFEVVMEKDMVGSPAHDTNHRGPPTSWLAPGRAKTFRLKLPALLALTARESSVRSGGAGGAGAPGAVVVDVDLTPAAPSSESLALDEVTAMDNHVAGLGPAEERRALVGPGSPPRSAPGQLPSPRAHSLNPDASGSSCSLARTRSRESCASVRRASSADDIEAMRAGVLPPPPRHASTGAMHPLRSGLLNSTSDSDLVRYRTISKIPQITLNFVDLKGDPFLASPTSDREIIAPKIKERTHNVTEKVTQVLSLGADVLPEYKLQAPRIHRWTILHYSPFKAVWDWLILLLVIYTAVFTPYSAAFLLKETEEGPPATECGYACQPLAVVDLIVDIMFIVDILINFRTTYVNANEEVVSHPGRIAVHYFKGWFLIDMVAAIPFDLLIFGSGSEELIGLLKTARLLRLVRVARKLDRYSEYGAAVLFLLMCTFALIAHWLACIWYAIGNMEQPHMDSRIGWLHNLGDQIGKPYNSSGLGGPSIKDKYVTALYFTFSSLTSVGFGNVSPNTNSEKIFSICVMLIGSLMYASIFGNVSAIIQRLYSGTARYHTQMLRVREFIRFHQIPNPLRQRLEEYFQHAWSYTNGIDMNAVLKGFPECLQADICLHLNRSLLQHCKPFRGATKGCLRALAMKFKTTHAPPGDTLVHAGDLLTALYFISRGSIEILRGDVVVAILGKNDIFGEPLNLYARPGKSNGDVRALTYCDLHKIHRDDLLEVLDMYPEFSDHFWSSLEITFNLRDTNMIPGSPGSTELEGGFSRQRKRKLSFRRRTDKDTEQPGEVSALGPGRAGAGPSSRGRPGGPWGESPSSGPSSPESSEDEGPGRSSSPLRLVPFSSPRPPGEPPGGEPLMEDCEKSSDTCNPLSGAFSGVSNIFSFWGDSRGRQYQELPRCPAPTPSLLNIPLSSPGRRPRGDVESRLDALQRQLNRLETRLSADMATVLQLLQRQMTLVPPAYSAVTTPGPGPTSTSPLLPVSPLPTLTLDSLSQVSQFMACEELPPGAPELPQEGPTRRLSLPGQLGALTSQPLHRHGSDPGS

SMILES | IC50 (hROMK (human Kir1.1)) [nM] | inhibition at 1 µM (hERG; [1]) [%] | other results
Cc1c(C(O)CN2CCc3nc(-n4ccc5c(C#N)cccc54)ncc3C2)ccc2c1COC2=O (single isomer, unassigned) [Example 1-I, 1-(6-(2-hydroxy-2-(4-methyl-1-oxo-1,3-dihydroisobenzofuran-5-yl)ethyl)-5,6,7,8-tetrahydropyrido[4,3-d]pyrimidin-2-yl)-1H-indole-4-carbonitrile] | 54 | 78 | 
Cc1c(C(O)CN2CCc3nc(-n4cc(C#N)c5ccccc54)ncc3C2)ccc2c1COC2=O (single isomer, unassigned) [Example 8-I, 1-(6-(2-hydroxy-2-(4-methyl-1-oxo-1,3-dihydroisobenzofuran-5-yl)ethyl)-5,6,7,8-tetrahydropyrido[4,3-d]pyrimidin-2-yl)-1H-indole-3-carbonitrile] | 28 | 98 | 
Cc1c(C(O)CN2CCc3nc(-n4ccc5cc(C#N)ccc54)ncc3C2)ccc2c1COC2=O (single isomer, unassigned) [Example 16-I, 1-(6-(2-hydroxy-2-(4-methyl-1-oxo-1,3-dihydroisobenzofuran-5-yl)ethyl)-5,6,7,8-tetrahydropyrido[4,3-d]pyrimidin-2-yl)-1H-indole-5-carbonitrile] | 380 | 25 | 
Cc1c(C(O)CN2CCc3nc(Nc4ccc(C#N)c(F)c4)ncc3C2)ccc2c1COC2=O (single isomer, unassigned) [Example 28-I, 2-fluoro-4-((6-(2-hydroxy-2-(4-methyl-1-oxo-1,3-dihydroisobenzofuran-5-yl)ethyl)-5,6,7,8-tetrahydropyrido [4,3-d]pyrimidin-2-yl)amino)benzonitrile] | 120 | 91 | 
Cc1c(C(O)CN2CCc3cc(Nc4ccc(C#N)c(F)c4)ccc3C2)ccc2c1COC2=O (single isomer, unassigned) [Example 32-I, 2-fluoro-4-((2-(2-hydroxy-2-(4-methyl-1-oxo-1,3-dihydroisobenzofuran-5-yl)ethyl)-1,2,3,4-tetrahydroisoquinolin-6-yl)amino) benzonitrile] | 50 | 100 | 
Cc1c(C(O)CN2CCc3cc(Nc4ccc(C#N)c(F)c4)ccc3C2)ccc2c1COC2=O (single isomer, unassigned) [Example 32-II, 2-fluoro-4-((2-(2-hydroxy-2-(4-methyl-1-oxo-1,3-dihydroisobenzofuran-5-yl)ethyl)-1,2,3,4-tetrahydroisoquinolin-6-yl)amino) benzonitrile] | 83 |  | hERG EP IC50 (% Inhibition at 1 μM) (hERG; 1 μM, HEK 293 cells stably expressing hERG): 97% @1 μM
Cc1c(C(O)CN2CCc3nc(-n4ccc5ncccc54)ncc3C2)ccc2c1COC2=O (single isomer, unassigned) [Example 36-I, 5-(2-(2-(1H-pyrrolo[3,2-b]pyridin-1-yl)-7,8-dihydropyrido[4,3-d]pyrimidin-6(5H)-yl)-1-hydroxyethyl)-4-methyl-isobenzofuran-1(3H)-one] | 180 | 12 | 
Cc1c(C(O)CN2CCc3nc(-n4ncc5c(C#N)cncc54)ncc3C2)ccc2c1COC2=O (single isomer, unassigned) [Example 43-I, 1-(6-(2-hydroxy-2-(4-methyl-1-oxo-1,3-dihydroisobenzofuran-5-yl)ethyl)-5,6,7,8-tetrahydropyrido[4,3-d]pyrimidin-2-yl)-1H-pyrazolo[3,4-c]pyridine-4-carbonitrile] | 180 | 16 | 
Cc1c(C(O)CN2CCc3nc(Nc4cccnc4)ncc3C2)ccc2c1COC2=O (single isomer, unassigned) [Example 54-I, 5-(1-hydroxy-2-(2-(pyridin-3-ylamino)-7,8-dihydropyrido[4,3-d]pyrimidin-6(5H)-yl)ethyl)-4-methylisobenzofuran-1(3H)-one] | 217 | 32 | 
Cc1c(C(O)CN2CCc3nc(-n4ccnc4C)ncc3C2)ccc2c1COC2=O (single isomer, unassigned) [Example 59-I, 5-(1-hydroxy-2-(2-(2-methyl-1H-imidazol-1-yl)-7,8-dihydropyrido[4,3-d]pyrimidin-6(5H)-yl)ethyl)-4-methyl isobenzofuran-1(3H)-one] | 224 | 13 | inhibition at 3 µM (hERG; human, HEK 293 cells stably expressing hERG channels, pH 7.4, 3 uM, read-out: hERG EP % Inhibition at 3 uM): 27%; inhibition at 10 µM (hERG; human, HEK 293 cells stably expressing hERG channels, pH 7.4, 10 uM, read-out: hERG EP % Inhibition at 10 uM): 51%
Cc1c(CN2CCc3cc(Nc4ccc(C#N)c(F)c4)ccc3C2)ccc2c1COC2=O [Example 30, 2-fluoro-4-((2-((4-methyl-1-oxo-1,3-dihydroisobenzofuran-5-yl)methyl)-1,2,3,4-tetrahydroisoquinolin-6-yl)amino)benzonitrile] | 810 |  | 
Cc1cc(Nc2ncc3c(n2)CCN(Cc2ccc4c(c2C)COC4=O)C3)ncc1C#N [Example 31, 4-methyl-6-((6-((4-methyl-1-oxo-1,3-dihydroisobenzofuran-5-yl)methyl)-5,6,7,8-tetrahydropyrido[4,3-d]pyrimidin-2-yl)amino) nicotinonitrile] | 1500 |  | 
Cc1cc(Nc2ccc3c(c2)CCN(Cc2ccc4c(c2)COC4=O)C3)ncc1C#N [Example 34, 4-methyl-6-((2-((1-oxo-1,3-dihydro-isobenzofuran-5-yl)methyl)-1,2,3,4-tetrahydroisoquinolin-6-yl)amino) nicotinonitrile] | 300 |  | 
Cc1c(CN2CCc3cc(Nc4ncc(C#N)cn4)ccc3C2)ccc2c1COC2=O [Example 37, 2-((2-((4-methyl-1-oxo-1,3-dihydro-isobenzofuran-5-yl)methyl)-1,2,3,4-tetrahydroisoquinolin-6-yl)amino) pyrimidine-5-carbonitrile] | 4900 |  | 
Cc1c(CN2CCc3cc(Nc4ccn5nccc5n4)ccc3C2)ccc2c1COC2=O [Example 38, 4-methyl-5-((6-(pyrazolo[1,5-a]pyrimidin-5-ylamino)-3,4-dihydroisoquinolin-2(1H)-yl)methyl)isobenzofuran-1(3H)-one] | 1900 |  | 
Cc1c(CN2CCc3cc(Nc4cccc(F)c4C#N)ccc3C2)ccc2c1COC2=O [Example 39, 2-fluoro-6-((2-((4-methyl-1-oxo-1,3-dihydroisobenzofuran-5-yl)methyl)-1,2,3,4-tetrahydroisoquinolin-6-yl)amino)benzonitrile] | 550 |  | 
Cc1c(CN2CCc3nc(-n4cnc5c(C#N)cccc54)ncc3C2)ccc2c1COC2=O [Example 40, 1-(6-((4-methyl-1-oxo-1,3-dihydro-isobenzofuran-5-yl)methyl)-5,6,7,8-tetrahydropyrido[4,3-d]pyrimidin-2-yl)-1H-benzo[d]imidazole-4-carbonitrile] | 3400 |  | 
N#Cc1cnc2c(ccn2-c2ncc3c(n2)CCN(Cc2ccc4c(c2)COC4=O)C3)c1 [Example 46, 1-(6-((1-oxo-1,3-dihydroisobenzofuran-5-yl)methyl)-5,6,7,8-tetrahydropyrido[4,3-d]pyrimidin-2-yl)-1H-pyrrolo[2,3-b] pyridine-5-carbonitrile] | 1500 |  | 
Cc1c(CN2CCc3nc(N(C)c4ccc(C#N)c(F)c4)ncc3C2)ccc2c1COC2=O [Example 47, 2-fluoro-4-(methyl(6-((4-methyl-1-oxo-1,3-dihydroisobenzofuran-5-yl)methyl)-5,6,7,8-tetrahydropyrido[4,3-d]pyrimidin-2-yl)amino) benzonitrile] | 1900 |  | 
Cn1c(=O)oc2ccc(CN3CCc4cc(Nc5ccc(C#N)c(F)c5)ccc4C3)cc21 [Example 48, 2-fluoro-4-((2-((3-methyl-2-oxo-2,3-dihydrobenzo[d]oxazol-5-yl)methyl)-1,2,3,4-tetrahydroisoquinolin-6-yl)amino)benzonitrile] | 600 |  | 
Cc1c(CN2CCc3nc(Nc4ccc5oc(=O)n(C)c5c4)ncc3C2)ccc2c1COC2=O [Example 49, 3-methyl-5-((6-((4-methyl-1-oxo-1,3-dihydroisobenzofuran-5-yl)methyl)-5,6,7,8-tetrahydropyrido[4,3-d]pyrimidin-2-yl)amino) benzo[d]oxazol-2(3H)-one] | 1800 |  | 
Cc1c(CN2Cc3cnc(Nc4ccc(C#N)c(F)c4)nc3CC2CO)ccc2c1COC2=O (stereo not shown) [Example 57-II, 2-fluoro-4-((7-(hydroxymethyl)-6-((4-methyl-1-oxo-1,3-dihydroisobenzo-furan-5-yl)methyl)-5,6,7,8-tetrahydro-pyrido[4,3-d]pyrimidin-2-yl)amino) benzonitrile] | 679 |  | 
